Source: ChEMBL document CHEMBL1255212, “Synthesis and antiviral evaluation of α-D-2',3'-didehydro-2',3'-dideoxy-3'-C-hydroxymethyl nucleosides” (Bioorg Med Chem Lett, 2010)
Values after ≈ are worked out from the molar mass of the structure shown. Active and inactive are the calls of the source. The rule behind the calls is not given here.

Experiments:
Format in all cases: functional, organism-based
Human alphaherpesvirus 2 = test: Antiviral activity against HSV2
[1] = tested on: Human immunodeficiency virus 1; test: Antiviral activity against HIV1
Human alphaherpesvirus 1 = test: Antiviral activity against HSV1
Human betaherpesvirus 5 = test: Antiviral activity against HCMV

NC1C=CN([C@@H]2C=C(CO)[C@@H](CO)O2)C(=O)N1 (some centres not stated)
Activity (Human alphaherpesvirus 2): inactive | Activity [1]: inactive | Activity (Human alphaherpesvirus 1): inactive | Activity (Human betaherpesvirus 5): inactive

Cc1cn([C@@H]2C=C(CO)[C@@H](CO)O2)c(=O)[nH]c1=O
Activity (Human alphaherpesvirus 2): inactive | Activity [1]: inactive | EC50 (Human alphaherpesvirus 1): 33 µg/mL (≈ 130 µM) | Activity (Human betaherpesvirus 5): inactive

Nc1ncnc2c1ncn2[C@@H]1C=C(CO)[C@@H](CO)O1
Activity (Human alphaherpesvirus 2): inactive | Activity [1]: inactive | Activity (Human alphaherpesvirus 1): inactive | Activity (Human betaherpesvirus 5): inactive
